Measurements: patent US9980509B2, “Modification of bacterial profile of tobacco” (R.J. REYNOLDS TOBACCO COMPANY, priority 2013, dated 2018)

How the values were obtained:
[1] = test system: enteric bacteria (gram negative bacteria); assay: Enteric bacteria counts (violet red bile agar) on field-treated tobacco leaf; type: in vivo; details: dark-air cured tobacco treated five hours prior to harvest; based on total bacteria counts before and after treatment
Description: (§1) Dark-air cured tobacco is treated five hours prior to harvest with one or more of a probiotic bacteria solution, and enzyme solution, and/or a 3% sodium chloride salt solution. The solution is applied using a backpack sprayer. Solutions are based on a 100 gallon solution per acre, using recommended plant spacings and dose per plant is provided below.
(§2) The treated tobacco is harvested and mid-stalk leaf samples are analyzed for total bacteria counts, enteric bacteria counts, and Lactobacillus counts. Ten grams of each treated tobacco sample is placed in Butterfields Phosphate Buffer and diluted 10^−2 to 10^−8 times with water. The treated tobacco sample dilutions are applied to plate count agar (PCA) for total aerobic bacteria counts, to violet red bile agar (VRBA) for gram negative bacteria counts, and to MRS for anaerobic (Lactobacillus) counts. The number of bacterial colonies, as visualized under magnification, are counted to estimate the total number of colony-forming units per gram, CFU/g.

total aerobic bacteria = assay: Total bacteria counts (plate count agar) on field-treated tobacco leaf; type: in vivo; details: dark-air cured tobacco treated five hours prior to harvest; based on total bacteria counts before and after treatment
Description: as §1, §2

Lactobacillus = Lactobacillus (anaerobic) counts on MRS from field-treated tobacco leaf; type: in vivo
Description: as §1, §2

Dark tobacco plants = details: for NNN content relative to the level of quantification: potassium chloride-treated samples 1, 2, 3, 5, and 6; for NNN content relative to the level of quantification / NAT content relative to the level of quantification: all potassium sulfate-treated samples; for NAT content relative to the level of quantification: potassium chloride-treated samples 3, 5, and 6
Description: A first, 0.5 acre unplanted plot of soil was treated with a nitrogen-containing fertilizer comprising urea (N—P—K: 46-0-0) at a rate of 150 pounds per acre and a fertilizer incorporating diammonium phosphate and phosphorus (N—P—K: 18-46-0) at a rate of 180 pounds per acre by broadcast application. […] All fertilizer applications were incorporated into the soil after application.
A second, 0.5 acre unplanted plot of soil was treated with a nitrogen-containing fertilizer comprising urea (N—P—K: 46-0-0) at a rate of 150 pounds per acre and a fertilizer incorporating diammonium phosphate and phosphorus (N—P—K: 18-46-0) at a rate of 180 pounds per acre by broadcast application. The following day, a potassium chloride fertilizer (N—P—K: 0-0-60) was broadcast applied at 180 pounds per acre. All fertilizer applications were incorporated into the soil after application.
Dark tobacco plants were independently grown and were transplanted as seedlings (approximately 6-10 inches in length) to both plots (with 2450 plants per fertilized plot) four days after application of the potassium sources to the soil. […] The tobacco plants from both plots were harvested about three months after UAN treatment, and the harvested plants were moved to a traditional 1-acre air-curing barn. The plants were cured in the barn for about a month and a half.
After curing the plants, the leaves were removed from the stalks. The fourth leaf from the upper stalk position of six plants from each plot was taken for analysis. Each of these twelve leaves was prepared by removing the mid-rib stem from the leaf lamina.
The lamina was milled and the content of certain components was evaluated by liquid chromatography-mass spectrometry (LCMS). In particular, the leaves were analyzed in triplicate for TSNA content (namely, NNN, NNK, NAT, and NAB content).

| Compound | enteric bacteria reduction after treatment [1] | total bacteria reduction after treatment (total aerobic bacteria) | Lactobacillus increase after treatment (Lactobacillus; dark-air cured tobacco treated five hours prior to harvest, based on total bacteria counts before and after treatment) | Lactobacillus bacteria change after treatment (Lactobacillus; treated tobacco material, Example 1) | NAT content compared with potassium sulfate treatment (Dark tobacco plants; all cured leaf samples tested) | NNN content compared with potassium sulfate treatment (Dark tobacco plants; all cured leaf samples tested) | average decrease NAT with respect to the potassium sulfate-treated samples (Dark tobacco plants; cured leaf samples) | average decrease NNN with respect to the potassium sulfate-treated samples (Dark tobacco plants; cured leaf samples) | TSNA levels, particularly NNN and NNK, compared with leaves from potassium sulfate-treated soil (Dark tobacco plants; cured leaves) | NNN content relative to the level of quantification (Dark tobacco plants) | NAT content relative to the level of quantification (Dark tobacco plants) |
| --- | --- | --- | --- | --- | --- | --- | --- | --- | --- | --- | --- |
| [Cl-].[Na+] [3% NaCl solution, sodium chloride] | 76% | 94% | greater than 400% | significant increase | – | – | – | – | – | – | – |
| [Cl-].[K+] [Potassium Chloride, potassium chloride] | – | – | – | – | significant decreases | significant decreases | about 77% | about 69% | significantly lower | below the level of quantification | below the level of quantification |
| O=S(=O)([O-])[O-].[K+].[K+] [Potassium Sulfate, potassium sulfate, reference compound] | – | – | – | – | – | – | – | – | – | well above such levels | well above such levels |
